In US11685732B2, “MYST family histone acetyltransferase inhibitors” (Epizyme, Inc., priority 2017, dated 2023):

Tests used:
KAT-7 = KAT-7 (Homo sapiens (Human), UniProt O95251); experiment: KAT-7 biochemical inhibition assay (SAMDI mass spectrometry)
In short: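 Read-out was SAMDI time-of-flight MS of formic acid-quenched reactions (0.5% final). Compound dilutions (2% DMSO final) were pre-incubated with 6 nM KAT-7 in 50 mM Tris pH 8.0 with 1 mM DTT, then given 1 μM peptide substrate and 2 μM acetyl-CoA for 120 min at 25 °C. IC50 values were derived.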

KAT-6A = KAT-6A (Homo sapiens (Human), UniProt Q92794); experiment: KAT-6A biochemical inhibition assay (SAMDI mass spectrometry)
In short: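 IC50 values came from SAMDI time-of-flight mass spectrometry after formic acid quench (0.5% final). Acetylation ran 90 min at 25 °C with 1 μM acetyl coenzyme A and 1 μM peptide substrate, following compound pre-incubation with 12.5 nM KAT-6A in Tris buffer pH 8.0 containing DTT, 2% DMSO final.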

KAT-8 = KAT-8 (Homo sapiens (Human), UniProt Q9H7Z6); experiment: KAT-8 biochemical inhibition assay (SAMDI mass spectrometry)
In short: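 Acetylation of 1 μM peptide substrate with 5 μM acetyl-CoA by 12.5 nM enzyme, compound pre-incubated, 2% DMSO, Tris pH 8.0 buffer with DTT, 25 °C for 90 min. Quench with 0.5% formic acid; product read by SAMDI mass spectrometry to give IC50.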

KAT-5 = KAT-5 (Homo sapiens (Human), UniProt Q92993); experiment: KAT-5 biochemical inhibition assay (SAMDI mass spectrometry)
In short: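 Acetylation of 1 μM peptide by 9 nM enzyme with 0.5 μM acetyl-CoA (final) was run 90 min at 25° C in Tris pH 8.0 buffer with DTT, after compound preincubation at 2% DMSO. Formic acid stopped the reaction, and product was quantified by SAMDI mass spectrometry to derive IC50.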

Sequence of KAT-8 (Q9H7Z6 other isoform, or with tags, fused parts or gaps): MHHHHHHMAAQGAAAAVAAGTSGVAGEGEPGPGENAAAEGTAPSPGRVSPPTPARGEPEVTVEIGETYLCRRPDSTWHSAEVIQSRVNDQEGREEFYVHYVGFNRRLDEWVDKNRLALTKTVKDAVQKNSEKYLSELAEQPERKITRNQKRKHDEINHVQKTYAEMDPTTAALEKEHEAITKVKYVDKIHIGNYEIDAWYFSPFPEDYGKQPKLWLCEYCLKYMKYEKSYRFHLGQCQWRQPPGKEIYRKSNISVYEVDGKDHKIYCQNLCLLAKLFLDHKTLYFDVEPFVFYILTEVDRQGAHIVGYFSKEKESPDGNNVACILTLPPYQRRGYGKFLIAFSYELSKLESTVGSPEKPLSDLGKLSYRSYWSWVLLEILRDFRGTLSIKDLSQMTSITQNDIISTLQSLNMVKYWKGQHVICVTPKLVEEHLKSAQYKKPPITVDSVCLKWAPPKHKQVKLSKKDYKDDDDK
Sequence of KAT-7 (O95251 other isoform, or with tags, fused parts or gaps): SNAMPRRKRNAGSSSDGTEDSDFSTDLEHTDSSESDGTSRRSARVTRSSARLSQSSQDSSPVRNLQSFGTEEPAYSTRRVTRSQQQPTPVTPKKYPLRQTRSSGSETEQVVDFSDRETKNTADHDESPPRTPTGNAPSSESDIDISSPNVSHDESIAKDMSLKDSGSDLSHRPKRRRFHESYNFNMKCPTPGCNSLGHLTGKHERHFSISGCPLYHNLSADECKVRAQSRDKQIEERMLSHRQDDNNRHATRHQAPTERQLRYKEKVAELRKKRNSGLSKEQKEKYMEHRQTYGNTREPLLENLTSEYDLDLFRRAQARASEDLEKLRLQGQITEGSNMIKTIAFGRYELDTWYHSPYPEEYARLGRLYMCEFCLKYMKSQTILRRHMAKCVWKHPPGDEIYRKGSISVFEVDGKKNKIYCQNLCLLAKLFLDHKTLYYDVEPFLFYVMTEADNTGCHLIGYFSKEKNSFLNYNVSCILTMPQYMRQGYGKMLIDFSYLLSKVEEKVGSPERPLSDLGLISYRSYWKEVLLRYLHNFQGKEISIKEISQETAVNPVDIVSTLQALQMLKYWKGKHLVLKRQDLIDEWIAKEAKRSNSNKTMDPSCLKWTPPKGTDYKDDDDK
Sequence of KAT-5 (Q92993 other isoform, or with tags, fused parts or gaps): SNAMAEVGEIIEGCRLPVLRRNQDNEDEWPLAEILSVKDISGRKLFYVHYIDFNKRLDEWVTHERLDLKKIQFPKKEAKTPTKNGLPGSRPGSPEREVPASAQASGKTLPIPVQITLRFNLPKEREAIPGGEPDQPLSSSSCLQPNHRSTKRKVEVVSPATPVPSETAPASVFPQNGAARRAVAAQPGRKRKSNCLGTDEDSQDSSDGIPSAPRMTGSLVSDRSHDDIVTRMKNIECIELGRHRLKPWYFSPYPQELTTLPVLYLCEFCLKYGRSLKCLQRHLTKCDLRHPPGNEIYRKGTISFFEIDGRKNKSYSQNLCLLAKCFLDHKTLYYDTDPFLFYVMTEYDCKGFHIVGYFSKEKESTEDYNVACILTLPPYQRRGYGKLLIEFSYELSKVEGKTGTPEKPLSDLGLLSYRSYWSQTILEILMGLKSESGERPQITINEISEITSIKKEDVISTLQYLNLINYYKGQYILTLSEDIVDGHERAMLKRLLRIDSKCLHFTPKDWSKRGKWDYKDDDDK
Sequence of KAT-6A (Q92794 other isoform, or with tags, fused parts or gaps): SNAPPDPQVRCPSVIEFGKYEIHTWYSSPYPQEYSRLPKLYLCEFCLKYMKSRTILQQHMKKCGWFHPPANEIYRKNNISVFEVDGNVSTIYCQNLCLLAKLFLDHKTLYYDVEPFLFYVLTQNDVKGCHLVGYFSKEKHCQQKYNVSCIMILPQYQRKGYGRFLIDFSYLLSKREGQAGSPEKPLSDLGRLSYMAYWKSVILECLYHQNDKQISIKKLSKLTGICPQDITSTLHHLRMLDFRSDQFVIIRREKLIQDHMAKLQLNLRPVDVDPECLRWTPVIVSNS

CC1CCCC(CS(=O)(=O)NNC(=O)c2cc(-c3cn(C)cn3)cc(Cl)c2F)C1 (stereo not shown) [Compound I-302]
IC50 (KAT-7): < 10 µM
IC50 (KAT-6A): < 10 µM
IC50 (KAT-8): 10 to 50 µM
IC50 (KAT-5): < 10 µM

Cn1cnc(-c2cc(Cl)c(F)c(C(=O)NNS(=O)(=O)C3CCCCC3)c2)c1 [Compound I-2]
IC50 (KAT-7): < 10 µM
IC50 (KAT-6A): < 10 µM
IC50 (KAT-8): 10 to 50 µM
IC50 (KAT-5): < 10 µM

Cn1cnc(-c2cc(Cl)c(F)c(C(=O)NNS(=O)(=O)CC3CCCN(S(=O)(=O)C4CC4)C3)c2)c1 (stereo not shown) [Compound I-86]
IC50 (KAT-7): < 10 µM
IC50 (KAT-6A): < 10 µM
IC50 (KAT-8): 10 to 50 µM
IC50 (KAT-5): < 10 µM

Cn1cnc(-c2cc(Cl)c(F)c(C(=O)NNS(=O)(=O)CC3CCCN(C(=O)C4CCC4)C3)c2)c1 (stereo not shown) [Compound I-13]
IC50 (KAT-7): < 10 µM
IC50 (KAT-6A): < 10 µM
IC50 (KAT-8): > 100 µM
IC50 (KAT-5): < 10 µM

Cc1nc(-c2cc(Cl)c(F)c(C(=O)NNS(=O)(=O)C3CCCCC3)c2)cn1C [Compound I-26]
IC50 (KAT-7): < 10 µM
IC50 (KAT-6A): 10 to 50 µM
IC50 (KAT-8): > 100 µM
IC50 (KAT-5): < 10 µM

CNC(=O)N1CC[C@H](CS(=O)(=O)NNC(=O)c2cc(-c3cn(C)cn3)cc(Cl)c2F)C1 [Compound I-210]
IC50 (KAT-7): < 10 µM
IC50 (KAT-6A): 10 to 50 µM
IC50 (KAT-8): 10 to 50 µM
IC50 (KAT-5): < 10 µM

Cc1cc(-c2cn(C)cn2)cc(C(=O)NNS(=O)(=O)CC2CCCNC2)c1F (stereo not shown) [Compound I-133]
IC50 (KAT-7): < 10 µM
IC50 (KAT-6A): > 100 µM
IC50 (KAT-8): > 100 µM
IC50 (KAT-5): > 100 µM

CNC(=S)N1CC[C@H](CS(=O)(=O)NNC(=O)c2cc(-c3cn(C)cn3)cc(Cl)c2F)C1 [Compound I-172]
IC50 (KAT-7): < 10 µM
IC50 (KAT-6A): < 10 µM
IC50 (KAT-8): 10 to 50 µM
IC50 (KAT-5): < 10 µM

CN[C@H]1CC[C@H](CS(=O)(=O)NNC(=O)c2cc(-c3cn(C)cn3)cc(Cl)c2F)CC1 [Compound I-337]
IC50 (KAT-7): < 10 µM
IC50 (KAT-6A): 10 to 50 µM
IC50 (KAT-8): 10 to 50 µM
IC50 (KAT-5): 10 to 50 µM

COCc1nc(-c2cc(Cl)c(F)c(C(=O)NNS(=O)(=O)CC3CCCCC3)c2)cn1C [Compound I-226]
IC50 (KAT-7): < 10 µM
IC50 (KAT-6A): 10 to 50 µM
IC50 (KAT-8): 10 to 50 µM
IC50 (KAT-5): < 10 µM

CC(C)S(=O)(=O)N1CCC(CS(=O)(=O)NNC(=O)c2cc(-c3cn(C)cn3)cc(Cl)c2F)C1 (stereo not shown) [Compound I-92]
IC50 (KAT-7): < 10 µM
IC50 (KAT-6A): < 10 µM
IC50 (KAT-8): 10 to 50 µM
IC50 (KAT-5): < 10 µM

Cn1cnc(-c2cc(Cl)c(F)c(C(=O)NNS(=O)(=O)c3ccc(Cl)cc3)c2)c1 [Compound I-323]
IC50 (KAT-7): < 10 µM
IC50 (KAT-6A): < 10 µM
IC50 (KAT-8): 10 to 50 µM
IC50 (KAT-5): < 10 µM

Cn1cnc(-c2cc(Cl)c(F)c(C(=O)NNS(=O)(=O)CC3CCCCC3)c2)c1 [Compound I-51, N′-(3-chloro-2-fluoro-5-(1-methyl-1H-imidazol-4-yl)benzoyl)-1-cyclohexyl methanesulfonohydrazide]
IC50 (KAT-7): < 10 µM
IC50 (KAT-6A): < 10 µM
IC50 (KAT-8): 10 to 50 µM
IC50 (KAT-5): < 10 µM

CCC(=O)NC1CCCC(CS(=O)(=O)NNC(=O)c2cc(-c3cn(C)cn3)cc(Cl)c2F)C1 (stereo not shown) [Compound I-199]
IC50 (KAT-7): < 10 µM
IC50 (KAT-6A): < 10 µM
IC50 (KAT-8): 10 to 50 µM
IC50 (KAT-5): < 10 µM

Cn1cnc(-c2cc(Cl)c(F)c(C(=O)NNS(=O)(=O)C[C@H]3CC[C@H](N)CC3)c2)c1 [Compound I-93]
IC50 (KAT-7): < 10 µM
IC50 (KAT-6A): 10 to 50 µM
IC50 (KAT-8): 10 to 50 µM
IC50 (KAT-5): 10 to 50 µM

Cn1cnc(-c2cc(Cl)c(F)c(C(=O)NNS(=O)(=O)C[C@H]3CCC[C@H](OCc4ccccc4)C3)c2)c1 [Compound I-288]
IC50 (KAT-7): < 10 µM
IC50 (KAT-6A): < 10 µM
IC50 (KAT-8): 10 to 50 µM
IC50 (KAT-5): < 10 µM

Cn1cnc(-c2cc(Cl)c(F)c(C(=O)NNS(=O)(=O)c3cccnc3)c2)c1 [Compound I-301]
IC50 (KAT-7): < 10 µM
IC50 (KAT-6A): < 10 µM
IC50 (KAT-8): 10 to 50 µM
IC50 (KAT-5): 10 to 50 µM

CCS(=O)(=O)NNC(=O)c1cc(-c2cn(C)cn2)cc(Cl)c1F [Compound I-25]
IC50 (KAT-7): < 10 µM
IC50 (KAT-6A): 50 to 100 µM
IC50 (KAT-8): > 100 µM
IC50 (KAT-5): 10 to 50 µM

Cc1cc(-c2cnn(C(C)C)c2)cc(C(=O)NNS(=O)(=O)C2CCCCC2)c1F [Compound I-155]
IC50 (KAT-7): 10 to 50 µM
IC50 (KAT-6A): > 100 µM
IC50 (KAT-8): > 100 µM
IC50 (KAT-5): > 100 µM

CCCS(=O)(=O)N1CCCC(CS(=O)(=O)NNC(=O)c2cc(-c3cn(C)cn3)cc(Cl)c2F)C1 (stereo not shown) [Compound I-94]
IC50 (KAT-7): < 10 µM
IC50 (KAT-6A): < 10 µM
IC50 (KAT-8): 10 to 50 µM
IC50 (KAT-5): < 10 µM

Cn1cnc(-c2cc(Cl)c(F)c(C(=O)NNS(=O)(=O)CC3CCCC(NC(=O)Cc4ccncc4)C3)c2)c1 (stereo not shown) [Compound I-247]
IC50 (KAT-7): < 10 µM
IC50 (KAT-6A): < 10 µM
IC50 (KAT-8): 10 to 50 µM
IC50 (KAT-5): < 10 µM

Cn1cnc(-c2cc(Cl)c(F)c(C(=O)NNS(=O)(=O)CC3CCCc4ccccc43)c2)c1 (stereo not shown) [Compound I-264]
IC50 (KAT-7): < 10 µM
IC50 (KAT-6A): < 10 µM
IC50 (KAT-8): 10 to 50 µM
IC50 (KAT-5): < 10 µM

Cn1cnc(-c2ccc(F)c(C(=O)NNS(=O)(=O)C[C@H]3CCC[C@H](O)C3)c2)c1 [Compound I-305]
IC50 (KAT-7): < 10 µM
IC50 (KAT-6A): 10 to 50 µM
IC50 (KAT-8): 10 to 50 µM
IC50 (KAT-5): 10 to 50 µM

Cn1cnc(-c2cc(F)c(F)c(C(=O)NNS(=O)(=O)C3CCOCC3)c2)c1 [Compound I-149]
IC50 (KAT-7): < 10 µM
IC50 (KAT-6A): 10 to 50 µM
IC50 (KAT-8): 10 to 50 µM
IC50 (KAT-5): 10 to 50 µM

Cn1cnc(-c2cc(Cl)c(F)c(C(=O)NNS(=O)(=O)CC3CCCC(NC(=O)Cc4ccccc4)C3)c2)c1 (stereo not shown) [Compound I-231]
IC50 (KAT-7): < 10 µM
IC50 (KAT-6A): < 10 µM
IC50 (KAT-8): 10 to 50 µM
IC50 (KAT-5): < 10 µM

Cn1cnc(-c2cc(Cl)c(F)c(C(=O)NNC3CCS(=O)(=O)C3)c2)c1 (stereo not shown) [Compound I-232]
IC50 (KAT-7): 10 to 50 µM
IC50 (KAT-6A): 10 to 50 µM
IC50 (KAT-8): 10 to 50 µM
IC50 (KAT-5): 10 to 50 µM

Cc1nn(C)c(C)c1-c1cc(Cl)c(F)c(C(=O)NNS(=O)(=O)CC2CCOCC2)c1 [Compound I-58]
IC50 (KAT-7): > 100 µM
IC50 (KAT-6A): > 100 µM
IC50 (KAT-8): > 100 µM
IC50 (KAT-5): > 100 µM

CO[C@H]1CC[C@H](CS(=O)(=O)NNC(=O)c2cc(-c3cn(C)cn3)cc(Cl)c2F)CC1 [Compound I-329]
IC50 (KAT-7): < 10 µM
IC50 (KAT-6A): < 10 µM
IC50 (KAT-8): 10 to 50 µM
IC50 (KAT-5): < 10 µM

Cn1cnc(-c2cc(Cl)c(F)c(C(=O)NNS(=O)(=O)C[C@H]3CCC[C@@H](O)C3)c2)c1 [Compound I-300]
IC50 (KAT-7): < 10 µM
IC50 (KAT-6A): < 10 µM
IC50 (KAT-8): 10 to 50 µM
IC50 (KAT-5): < 10 µM

Cn1cnc(-c2cc(Cl)c(F)c(C(=O)NNS(=O)(=O)C[C@H]3CC[C@@H](NC(N)=O)CC3)c2)c1 [Compound I-200]
IC50 (KAT-7): < 10 µM
IC50 (KAT-6A): < 10 µM
IC50 (KAT-8): < 10 µM
IC50 (KAT-5): < 10 µM

CCC(=O)N(C)C1CCCC(CS(=O)(=O)NNC(=O)c2cc(-c3cn(C)cn3)cc(Cl)c2F)C1 (stereo not shown) [Compound I-294]
IC50 (KAT-7): < 10 µM
IC50 (KAT-6A): < 10 µM
IC50 (KAT-8): 10 to 50 µM
IC50 (KAT-5): < 10 µM

Cn1cnc(-c2cc(Cl)c(F)c(C(=O)NNS(=O)(=O)C[C@@H]3CCOC3)c2)c1 [Compound I-372]
IC50 (KAT-7): < 10 µM
IC50 (KAT-6A): 10 to 50 µM
IC50 (KAT-8): 10 to 50 µM
IC50 (KAT-5): < 10 µM

CCCS(=O)(=O)N1CCC(CS(=O)(=O)NNC(=O)c2cc(-c3cn(C)cn3)cc(Cl)c2F)C1 (stereo not shown) [Compound I-85]
IC50 (KAT-7): < 10 µM
IC50 (KAT-6A): < 10 µM
IC50 (KAT-8): 10 to 50 µM
IC50 (KAT-5): < 10 µM

COCCn1cc(S(=O)(=O)NNC(=O)c2cc(-c3cn(C)cn3)cc(Cl)c2F)cn1 [Compound I-212]
IC50 (KAT-7): < 10 µM
IC50 (KAT-6A): 10 to 50 µM
IC50 (KAT-8): 10 to 50 µM
IC50 (KAT-5): 10 to 50 µM
